# Results as given in patent publication US20140220110A1, “REMOTE LOADING OF SPARINGLY WATER-SOLUBLE DRUGS INTO LIPOSOMES” (ZONEONE PHARMA, INC., priority 2013, published 2014).
# Assays:
# [1] = Carfilzomib solubility as a function of DMSO content (optical density at 600 nm); assay type: physicochemical; details: 0.2 mg/mL carfilzomib
# Method: Carfilzomib was added from a stock 10 mg/mL solution in DMSO to 1 mL of a citric acid/DMSO mixture so that the composition of DMSO was 2%, 25%, 50%, 75% and 100%. The final drug concentration was 0.2 mg/mL. The solutions were prepared and measured for optical density at 600 nm. The optical density at 600 nm is a good measure of how turbid or how much scattering material (such as drug precipitates) are in a solution, generally, the more precipitates the higher the absorbance. From FIG. 8 is apparent that at DMSO concentrations below 50% vol/vol (25° C.) and 25% vol/vol (65° C.) the drug remains in a precipitated form. Only when the concentration of DMSO is increased does it become effectively solubilized at this concentration of 0.2 mg/mL.
# [2] = Liposome size by dynamic light scattering; assay type: physicochemical; details: liposomes loaded with carfilzomib, before lyophilizing
# Method: The lipid concentration is determined by measuring the cholesterol by HPLC using an Agilent 1100 HPLC with and Agilent Zorbax 5 um, […], Eclipse XDB-C8 column and a mobile phase of A=0.1% TFA, B=0.1% TFA/MeOH with an isocratic elution of 99% B. The flow rate is 1.0 mL/min, column temperature is 50° C., 10 μL injection and detection by absorbance at 205 nm. The retention time of cholesterol is 4.5 min. The liposome size is measured by dynamic light scattering.
# See Example 1, Carfilzomib liposome entrapment by remote loading for details on how the liposomes were made, purified and characterized.
# [3] = Remote loading of carfilzomib precipitate into liposomes (drug and lipid by HPLC after purification); assay type: physicochemical
# [4] = unencapsulated drug; Yang et al 2011; cited from earlier work
# [5] = Reverse gradient-directed drug release from liposomes; assay type: physicochemical; details: for % Carfilzomib Released: 65 C 30 min
# Method: Liposomes were loaded with carfilzomib as described in Example 1 and were purified into deionized water. The sample was divided into two aliquots. To the first aliquot, concentrated Hepes pH 7.4 and NaCl was added so that the final concentration was 5 mM Hepes, 145 mM NaCl (HBS). To the second aliquot, concentrated ammonium sulfate was added so that the final concentration was 250 mM. No obvious physical changes were initially observed. The samples were then heated at 65° C. for 30 min. The samples were transferred to clean eppendorf tubes and centrifuged for 10,000 rpm for 5 min after which the supernatants and precipitates were separated and tested for carfilzomib content by HPLC assay. Released drug precipitated, liposome encapsulated drug remained in the supernatant. The % carfilzomib released was calculated by […]
# [6] = 250 mM ammonium sulfate liposomes, drug added at 200 g drug/mol HSPC
# [7] = input drug/HSPC 91.8 g/mol, [(NH4)2SO4] 250 mM
# [8] = input drug/HSPC 167.3 g/mol, [(NH4)2SO4] 250 mM
# [9] = input drug/HSPC 251.8 g/mol, [(NH4)2SO4] 250 mM
# [10] = input drug/HSPC 338.1 g/mol, [(NH4)2SO4] 250 mM
# [11] = input drug/HSPC 432.8 g/mol, [(NH4)2SO4] 250 mM
# [12] = input drug/HSPC 450.6 g/mol, [(NH4)2SO4] 500 mM
# [13] = input drug/HSPC 545.9 g/mol, [(NH4)2SO4] 500 mM
# [14] = input drug/HSPC 639.2 g/mol, [(NH4)2SO4] 500 mM
# [15] = input drug/HSPC 639.2 g/mol, [(NH4)2SO4] 500 mM, listed as Carfilzomib
# [16] = input drug/HSPC 758.7 g/mol, [(NH4)2SO4] 500 mM
# [17] = input drug/HSPC 758.7 g/mol, [(NH4)2SO4] 500 mM, listed as Carfilzomib
# [18] = triethylammonium sulfate gradient, input 650 g drug/mol HSPC, at 30 min
compound,measurement,setting,value
CC(C)C[C@H](NC(=O)[C@H](CCc1ccccc1)NC(=O)CN1CCOCC1)C(=O)N[C@@H](Cc1ccccc1)C(=O)N[C@@H](CC(C)C)C(=O)[C@@]1(C)CO1 [carfilzomib],DMSO concentration below which the drug remains in a precipitated form,[1]; 25 C,50 % vol/vol
same,DMSO required to completely dissolve the drug,[1]; 65 C,> 25 % vol/vol
same,PDI,"[2]; (NH4)2SO4, drug added quickly",0.062
same,Z-ave,"[2]; (NH4)2SO4, drug added quickly",108 nm
same,PDI,"[2]; (NH4)2SO4, drug added slowly",0.035
same,Z-ave,"[2]; (NH4)2SO4, drug added slowly",109.2 nm
same,PDI,[2]; Mellitic Acid,0.08
same,Z-ave,[2]; Mellitic Acid,105.5 nm
same,PDI,[2]; Napthelenedisulfonic acid,0.039
same,Z-ave,[2]; Napthelenedisulfonic acid,111.9 nm
same,final drug to lipid ratio,[3]; [6],136.9±7.35 g drug/mol of HSPC
same,loading efficiency,[3]; [6],67.94±3.67%
same,loading efficiency,"[3]; DMSO 1% and above (up to 10% v/v), input 200 ug/umol, ammonium sulfate liposomes",74-94%
same,loading,[3]; DMSO absent,practically no loading
same,final drug load,"[3]; control liposomes with 250 mM sodium sulfate (no gradient), drug added at 200 g drug/mol HSPC",29.01±0.79 g drug/mol of HSPC
same,effect of time between precipitate formation and loading on loading efficiency,[3]; delay up to 12 h,does not have a significant impact
same,efficiency of remote loading,"[3]; drug added as solid powder, 65 C for 30 min, 100 g drug/mol HSPC",3.88%±0.053%
same,efficiency of remote loading,"[3]; drug added as solid powder, 65 C for 120 min, 100 g drug/mol HSPC",3.47%±0.030%
same,Drug payload/carrier weight ratio,[3]; [7],0.07 g drug/g total lipid
same,Output drug/HSPC,[3]; [7],83.5 g/mol
same,efficiency,[3]; [7],90.9%
same,Drug payload/carrier weight ratio,[3]; [8],0.11 g drug/g total lipid
same,Output drug/HSPC,[3]; [8],127.2 g/mol
same,efficiency,[3]; [8],76.0%
same,Drug payload/carrier weight ratio,[3]; [9],0.15 g drug/g total lipid
same,Output drug/HSPC,[3]; [9],174.1 g/mol
same,efficiency,[3]; [9],69.1%
same,Drug payload/carrier weight ratio,[3]; [10],0.18 g drug/g total lipid
same,Output drug/HSPC,[3]; [10],210.7 g/mol
same,efficiency,[3]; [10],62.3%
same,Drug payload/carrier weight ratio,[3]; [11],0.20 g drug/g total lipid
same,Output drug/HSPC,[3]; [11],240.5 g/mol
same,efficiency,[3]; [11],55.6%
same,Drug payload/carrier weight ratio,[3]; [12],0.29 g drug/g total lipid
same,Output drug/HSPC,[3]; [12],345.2 g/mol
same,efficiency,[3]; [12],76.6%
same,Drug payload/carrier weight ratio,[3]; [13],0.32 g drug/g total lipid
same,Output drug/HSPC,[3]; [13],380.9 g/mol
same,efficiency,[3]; [13],69.8%
same,Drug payload/carrier weight ratio,[3]; [14],0.37 g drug/g total lipid
same,Output drug/HSPC,[3]; [14],440 ± 10.2 g/mol
same,efficiency,[3]; [14],68.7±4.80%
same,Output drug/HSPC,[3]; [15],438.9 g/mol
same,efficiency,[3]; [15],68.7%
same,Drug payload/carrier weight ratio,[3]; [16],0.4 g drug/g total lipid
same,Output drug/HSPC,[3]; [16],469 ± 4.9 g/mol
same,efficiency,[3]; [16],61.7±1.2%
same,Drug payload/carrier weight ratio,[3]; [17],0.40 g drug/g total lipid
same,Output drug/HSPC,[3]; [17],468.2 g/mol
same,efficiency,[3]; [17],61.7%
same,efficiency of remote loading,"[3]; room temperature, 3 POPC/2 Chol/0.15 PEG-DSPE liposomes, 187 g drug/mol",100.52%±1.01%
same,efficiency of remote loading,"[3]; room temperature, 95 PChemsPC/5 PEG-DSPE liposomes, 100 g drug/mol PChemsPC",95.5%±1.23%
same,efficiency of remote loading,"[3]; trapping agent mellitic acid, 100 g drug/mol HSPC",37.4%±2.01%
same,efficiency of remote loading,"[3]; trapping agent napthelenedisulfonic acid, 100 g drug/mol HSPC",95.1%±1.76%
same,efficiency,[3]; [18],65.9±1.98%
same,greatest payload achieved,[3]; [18],440±12.6 g drug/mol HSPC
same,t1/2 in the blood stream,[4],< 20 min
same,drug released with reverse gradient over control with no reverse gradient,[5],6.5 fold
same,% Carfilzomib Released,[5]; 250 mM ammonium sulfate outside (reverse gradient),68.5 ± 1.82%
same,% Carfilzomib Released,[5]; Hepes buffered saline (no reverse gradient),10.6 ± 0.28%
same,degradation of released drug (HPLC chromatogram against starting material),[5]; after loading and release by reverse gradient,no degradation of carfilzomib had taken place
